Results reported in patent publication US12275731B2, “Azaindole inhibitors of wild-type and mutant forms of LRRK2” (DANA-FARBER CANCER INSTITUTE, INC., priority 2018, dated 2025).

How the values were obtained:
Assay in all cases: KinomeScan profiling
Type in all cases: binding
[1] = molecular target: T1, ABL1(T315I)-phosphorylated (Homo sapiens, UniProt P00519, T315I); conditions: read-out: % control
T1 construct: purchased KinomeScan®
In short: (§1)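 Compounds were screened at 1 μM in DMSO across a 468-kinase KinomeScan panel. Binding was expressed as % control, scaled between a positive control (0%) and DMSO (100%) using luminescence signal. A value under 35% counted as active.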

ARK5 = molecular target: T2, ARK5 (Homo sapiens, UniProt O60285); conditions: ARK5, 1 μM; read-out: % control
T2 construct: purchased KinomeScan®
T2 sequence (O60285 1-661): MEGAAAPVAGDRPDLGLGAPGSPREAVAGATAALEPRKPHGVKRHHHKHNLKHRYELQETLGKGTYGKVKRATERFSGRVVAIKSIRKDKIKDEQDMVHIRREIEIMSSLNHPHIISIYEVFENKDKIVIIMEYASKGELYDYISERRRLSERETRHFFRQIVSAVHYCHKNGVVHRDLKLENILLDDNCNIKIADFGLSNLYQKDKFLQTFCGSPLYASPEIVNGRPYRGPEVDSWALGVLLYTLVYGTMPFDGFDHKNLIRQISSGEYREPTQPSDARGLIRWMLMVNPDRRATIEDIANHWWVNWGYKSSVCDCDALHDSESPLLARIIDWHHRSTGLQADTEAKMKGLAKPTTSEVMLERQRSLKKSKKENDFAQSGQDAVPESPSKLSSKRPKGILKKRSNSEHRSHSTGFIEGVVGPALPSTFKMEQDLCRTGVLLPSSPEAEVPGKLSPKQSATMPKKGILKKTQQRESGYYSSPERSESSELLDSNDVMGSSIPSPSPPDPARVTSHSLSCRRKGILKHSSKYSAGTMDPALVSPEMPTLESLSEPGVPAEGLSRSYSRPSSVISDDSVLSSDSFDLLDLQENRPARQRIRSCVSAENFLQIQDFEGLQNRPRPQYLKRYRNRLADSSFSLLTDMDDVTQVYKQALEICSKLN
In short: as §1

ERK1 = ERK1 (Homo sapiens, UniProt P27361); conditions: ERK1, 1 μM; read-out: % control
Chain of ERK1 (P27361 whole entry): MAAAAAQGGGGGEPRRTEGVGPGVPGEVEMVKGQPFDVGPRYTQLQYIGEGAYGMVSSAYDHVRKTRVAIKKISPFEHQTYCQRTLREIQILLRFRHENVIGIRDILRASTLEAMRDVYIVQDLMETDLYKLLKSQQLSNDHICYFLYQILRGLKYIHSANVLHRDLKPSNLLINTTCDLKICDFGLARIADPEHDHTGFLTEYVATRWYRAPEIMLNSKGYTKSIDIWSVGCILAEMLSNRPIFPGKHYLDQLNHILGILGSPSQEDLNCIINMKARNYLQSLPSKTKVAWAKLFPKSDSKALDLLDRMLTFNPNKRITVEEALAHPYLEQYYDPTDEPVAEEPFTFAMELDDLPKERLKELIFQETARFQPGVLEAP
In short: as §1

FGFR3(G697C) = FGFR3(G697C) (Homo sapiens, UniProt P22607, G697C); conditions: read-out: % control
Chain of FGFR3(G697C) (P22607 23-806 G697C): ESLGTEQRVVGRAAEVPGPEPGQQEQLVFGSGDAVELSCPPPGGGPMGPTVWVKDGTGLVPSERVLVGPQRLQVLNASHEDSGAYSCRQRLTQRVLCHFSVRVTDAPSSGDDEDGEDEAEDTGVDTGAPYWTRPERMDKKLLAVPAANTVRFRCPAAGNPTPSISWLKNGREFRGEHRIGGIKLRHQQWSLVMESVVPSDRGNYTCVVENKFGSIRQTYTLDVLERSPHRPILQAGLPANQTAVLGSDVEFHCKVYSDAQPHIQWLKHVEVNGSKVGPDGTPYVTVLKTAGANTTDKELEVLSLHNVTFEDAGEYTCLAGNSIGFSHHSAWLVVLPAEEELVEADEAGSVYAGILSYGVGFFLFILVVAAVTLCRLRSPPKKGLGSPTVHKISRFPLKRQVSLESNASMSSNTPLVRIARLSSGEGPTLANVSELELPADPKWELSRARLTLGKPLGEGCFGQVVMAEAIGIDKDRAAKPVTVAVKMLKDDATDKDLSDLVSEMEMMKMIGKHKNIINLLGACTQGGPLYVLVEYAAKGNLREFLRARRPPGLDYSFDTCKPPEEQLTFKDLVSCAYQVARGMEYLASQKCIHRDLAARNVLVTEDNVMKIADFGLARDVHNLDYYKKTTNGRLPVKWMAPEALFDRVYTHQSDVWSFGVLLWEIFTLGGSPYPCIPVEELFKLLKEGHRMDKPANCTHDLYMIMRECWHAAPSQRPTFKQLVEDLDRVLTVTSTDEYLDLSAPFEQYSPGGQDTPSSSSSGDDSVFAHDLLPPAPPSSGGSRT
In short: as §1

INSR = molecular target: T3, INSR (Homo sapiens, UniProt P06213); conditions: read-out: % control
T3 construct: purchased KinomeScan®
T3 sequence (P06213 28-1382): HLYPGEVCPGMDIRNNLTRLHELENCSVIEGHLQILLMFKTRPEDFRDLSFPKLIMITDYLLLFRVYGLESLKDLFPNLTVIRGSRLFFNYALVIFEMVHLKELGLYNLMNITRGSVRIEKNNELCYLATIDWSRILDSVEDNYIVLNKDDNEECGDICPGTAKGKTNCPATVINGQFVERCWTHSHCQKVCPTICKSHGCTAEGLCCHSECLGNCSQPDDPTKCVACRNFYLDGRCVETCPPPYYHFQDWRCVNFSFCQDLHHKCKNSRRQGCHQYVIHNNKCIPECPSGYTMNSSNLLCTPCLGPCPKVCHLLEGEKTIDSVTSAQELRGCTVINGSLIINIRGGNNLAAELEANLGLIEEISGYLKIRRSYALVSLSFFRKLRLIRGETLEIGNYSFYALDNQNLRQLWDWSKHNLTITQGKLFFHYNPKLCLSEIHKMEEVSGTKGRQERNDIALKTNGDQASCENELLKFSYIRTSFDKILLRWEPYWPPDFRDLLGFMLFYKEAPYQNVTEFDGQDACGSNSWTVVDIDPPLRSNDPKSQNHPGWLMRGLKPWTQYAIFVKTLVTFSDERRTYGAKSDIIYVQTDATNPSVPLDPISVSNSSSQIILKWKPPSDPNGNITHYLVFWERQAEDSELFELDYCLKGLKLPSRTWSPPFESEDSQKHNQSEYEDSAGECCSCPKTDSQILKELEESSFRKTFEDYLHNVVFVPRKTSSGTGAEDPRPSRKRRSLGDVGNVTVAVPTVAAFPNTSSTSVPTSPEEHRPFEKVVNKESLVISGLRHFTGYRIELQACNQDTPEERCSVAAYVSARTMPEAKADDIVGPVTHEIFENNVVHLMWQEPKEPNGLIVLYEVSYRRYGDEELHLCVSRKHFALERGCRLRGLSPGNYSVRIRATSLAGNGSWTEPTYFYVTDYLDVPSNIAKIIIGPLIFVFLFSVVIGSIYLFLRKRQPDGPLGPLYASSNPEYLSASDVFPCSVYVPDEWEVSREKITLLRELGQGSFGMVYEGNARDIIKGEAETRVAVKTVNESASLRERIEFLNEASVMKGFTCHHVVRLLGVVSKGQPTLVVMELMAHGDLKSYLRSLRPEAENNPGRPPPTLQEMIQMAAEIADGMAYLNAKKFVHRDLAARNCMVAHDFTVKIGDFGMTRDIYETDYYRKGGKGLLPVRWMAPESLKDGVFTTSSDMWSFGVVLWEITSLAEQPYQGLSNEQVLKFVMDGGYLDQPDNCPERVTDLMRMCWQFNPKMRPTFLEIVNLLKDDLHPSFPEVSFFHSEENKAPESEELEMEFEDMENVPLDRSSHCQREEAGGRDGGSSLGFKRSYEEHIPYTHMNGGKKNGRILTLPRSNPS
In short: as §1

MAPKAPK5 = molecular target: T4, MAPKAPK5 (Homo sapiens, UniProt Q8IW41); conditions: MAPKAPK5, 1 μM; read-out: % control
T4 sequence (Q8IW41 1-473): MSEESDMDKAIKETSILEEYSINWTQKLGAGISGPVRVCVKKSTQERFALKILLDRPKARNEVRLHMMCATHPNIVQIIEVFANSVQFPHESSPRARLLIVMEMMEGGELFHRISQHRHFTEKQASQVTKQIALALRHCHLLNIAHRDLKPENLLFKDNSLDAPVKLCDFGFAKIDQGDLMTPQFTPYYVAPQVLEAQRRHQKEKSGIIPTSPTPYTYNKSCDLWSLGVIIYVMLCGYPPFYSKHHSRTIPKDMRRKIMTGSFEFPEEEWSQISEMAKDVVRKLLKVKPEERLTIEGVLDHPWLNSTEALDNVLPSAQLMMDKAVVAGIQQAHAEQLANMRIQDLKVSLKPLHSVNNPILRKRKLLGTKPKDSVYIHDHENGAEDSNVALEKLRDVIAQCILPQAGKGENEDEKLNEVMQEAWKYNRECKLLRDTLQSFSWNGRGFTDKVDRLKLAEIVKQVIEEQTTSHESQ
In short: as §1

PLK2 = PLK2 (Homo sapiens, UniProt Q9NYY3); conditions: PLK2, 1 μM; read-out: % control
Chain of PLK2 (Q9NYY3 whole entry): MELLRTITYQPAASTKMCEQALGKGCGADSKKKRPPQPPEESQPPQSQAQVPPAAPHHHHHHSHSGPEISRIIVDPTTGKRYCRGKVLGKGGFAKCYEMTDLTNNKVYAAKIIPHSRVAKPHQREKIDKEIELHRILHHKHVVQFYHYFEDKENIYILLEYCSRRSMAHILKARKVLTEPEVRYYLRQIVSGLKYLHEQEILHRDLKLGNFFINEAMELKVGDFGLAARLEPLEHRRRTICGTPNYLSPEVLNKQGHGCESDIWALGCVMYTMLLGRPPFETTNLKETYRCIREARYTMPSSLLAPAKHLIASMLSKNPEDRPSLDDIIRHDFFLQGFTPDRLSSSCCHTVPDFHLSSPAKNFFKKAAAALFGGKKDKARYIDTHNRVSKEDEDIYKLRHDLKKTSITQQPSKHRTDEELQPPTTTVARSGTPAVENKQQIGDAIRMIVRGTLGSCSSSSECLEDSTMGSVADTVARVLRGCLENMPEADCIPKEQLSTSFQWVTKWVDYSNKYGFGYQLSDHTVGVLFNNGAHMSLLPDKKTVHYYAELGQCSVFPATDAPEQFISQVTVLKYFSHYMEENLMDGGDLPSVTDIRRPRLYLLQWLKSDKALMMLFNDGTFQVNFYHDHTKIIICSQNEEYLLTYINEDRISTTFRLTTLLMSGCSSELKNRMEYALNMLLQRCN
In short: as §1

TAK1 = molecular target: T5, TAK1 (Homo sapiens, UniProt O43318); conditions: TAK1, 1 μM; read-out: % control
T5 construct: purchased KinomeScan® (panel service)
T5 sequence (O43318 1-606): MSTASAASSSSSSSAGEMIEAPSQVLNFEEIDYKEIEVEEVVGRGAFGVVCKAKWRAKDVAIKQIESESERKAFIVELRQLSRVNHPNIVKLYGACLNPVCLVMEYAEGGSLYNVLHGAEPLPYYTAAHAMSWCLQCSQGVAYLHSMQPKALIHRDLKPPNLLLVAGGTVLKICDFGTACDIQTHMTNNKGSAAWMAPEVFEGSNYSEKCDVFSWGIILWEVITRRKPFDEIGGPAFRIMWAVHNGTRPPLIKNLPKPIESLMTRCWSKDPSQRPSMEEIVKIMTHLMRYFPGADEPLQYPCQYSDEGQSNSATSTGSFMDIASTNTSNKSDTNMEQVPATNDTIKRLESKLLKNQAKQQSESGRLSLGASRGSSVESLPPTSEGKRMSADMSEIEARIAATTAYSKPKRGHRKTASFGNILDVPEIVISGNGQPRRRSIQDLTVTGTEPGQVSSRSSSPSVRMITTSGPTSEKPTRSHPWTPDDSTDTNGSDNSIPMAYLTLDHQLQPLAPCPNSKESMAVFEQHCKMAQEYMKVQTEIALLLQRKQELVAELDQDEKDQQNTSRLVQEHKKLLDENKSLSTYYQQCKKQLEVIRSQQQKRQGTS
In short: as §1

SMILES	remaining binding at 1 µM [1] [%]	remaining binding at 1 µM (ARK5) [%]	remaining binding at 1 µM (ERK1) [%]	remaining binding at 1 µM (FGFR3(G697C)) [%]	remaining binding at 1 µM (INSR) [%]	remaining binding at 1 µM (MAPKAPK5) [%]	remaining binding at 1 µM (PLK2) [%]	remaining binding at 1 µM (TAK1) [%]
CNc1c(-c2cnn([C@H]3CCN(C(C)=O)C[C@@H]3F)c2)cnc2[nH]cc(Cl)c12 [Compound 77, 1-((3S,4S)-4-(4-(3-chloro-4-(methylamino)-1H-pyrrolo[2,3-b]pyridin-5-yl)-1H-pyrazol-1-yl)-3-fluoropiperidin-1-yl)ethan-1-one]	31	86	100	51	53	100	85	21
O=C(c1ccc(-c2cnc3[nH]cc(Cl)c3c2NC2CCCC2)cc1)N1CCC(N2CCOCC2)CC1 [Compound 101, (4-(3-chloro-4-(cyclopentylamino)-1H-pyrrolo[2,3-b]pyridin-5-yl)phenyl)(4-morpholinopiperidin-1-yl)methanone]	95	67	98	74	68	100	100	6.1
CNc1c(-c2ccc(C(=O)N3CCC(N4CCOCC4)CC3)cc2)cnc2[nH]cc(Cl)c12 [Compound 96, (4-(3-chloro-4-(methylamino)-1H-pyrrolo[2,3-b]pyridin-5-yl)phenyl)(4-morpholinopiperidin-1-yl)methanone]	52	64	100	55	71	100	100	6.9
